The supplement of paper PMC10307832

Tests used:
Assay in all cases: relative viability (nuclei count vs DMSO), 5 days (fraction); higher = more cells survive
[1] = compound: O=C(O)C(Cc1ccccc1[N+](=O)[O-])=NNc1nc(-c2ccc(Cl)c(Cl)c2)cs1 (mixture of isomers) [4EGI-1] + Cc1nc(Nc2ncc(C(=O)Nc3c(C)cccc3Cl)s2)cc(N2CCN(CCO)CC2)n1 [Dasatinib] (partner 0.075 µM)
Summary of the method: (§1)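 Each reported value is a median over duplicate plates. It expresses relative viability: treated-well nuclei count divided by vehicle-well nuclei count. Lung cancer cell lines in 1536-well plates were dosed by pin tool a day after seeding, alone with one drug or with a fixed anchor-drug dose plus five library-drug doses (not always all listed) in √10 steps, and nuclei were counted after 5 days.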

[2] = compound: CN1CCN(CC1)C2=CC(=C(C=C2)NC3=NC=C4C(=N3)N(C5=CC=CC=C5C(=O)N4C)C)OC [XMD8-85] + NC(=O)Nc1cc(-c2cccc(F)c2)sc1C(=O)N[C@H]1CCCNC1 [AZD7762] (partner 0.2 µM)
Summary of the method: as §1

[3] = compound: CN1CCN(CC1)C2=CC(=C(C=C2)NC3=NC=C4C(=N3)N(C5=CC=CC=C5C(=O)N4C)C)OC [XMD8-85] + CC(C)C[C@H](NC(=O)[C@H](Cc1ccccc1)NC(=O)c1cnccn1)B(O)O [Bortezomib] (partner 0.002 µM)
Summary of the method: as §1

[4] = compound: O=C(O)C(Cc1ccccc1[N+](=O)[O-])=NNc1nc(-c2ccc(Cl)c(Cl)c2)cs1 (mixture of isomers) [4EGI-1] + C[C@]1(O)C[C@@H](c2nc(-c3ccc4ccc(-c5ccccc5)nc4c3)c3c(N)nccn32)C1 [Linsitinib] (partner 1 µM)
Summary of the method: as §1

[5] = compound: CN1CCN(CC1)C2=CC(=C(C=C2)NC3=NC=C4C(=N3)N(C5=CC=CC=C5C(=O)N4C)C)OC [XMD8-85] + CCNC(=O)c1noc(-c2cc(C(C)C)c(O)cc2O)c1-c1ccc(CN2CCOCC2)cc1 [Luminespib] (partner 0.01 µM)
Summary of the method: as §1

NCI-H1792
relative viability ([1]; first compound 0.5 µM): 1.03
relative viability ([1]; first compound 1.581 µM): 0.797
relative viability ([1]; first compound 5 µM): 0.74
relative viability ([1]; first compound 15.81 µM): 0.712
relative viability ([1]; first compound 50 µM): 0.671
relative viability ([2]; first compound 0.8 µM): 0.647
relative viability ([2]; first compound 2.53 µM): 0.694
relative viability ([2]; first compound 8 µM): 0.574
relative viability ([3]; first compound 0.08 µM): 0.985
relative viability ([3]; first compound 0.253 µM): 0.776
relative viability ([3]; first compound 2.53 µM): 0.929
relative viability ([3]; first compound 8 µM): 0.838
relative viability ([4]; first compound 0.5 µM): 0.613
relative viability ([4]; first compound 1.581 µM): 0.444
relative viability ([4]; first compound 5 µM): 0.48
relative viability ([4]; first compound 15.81 µM): 0.441
relative viability ([4]; first compound 50 µM): 0.472
relative viability ([5]; first compound 0.253 µM): 0.504
relative viability ([5]; first compound 2.53 µM): 0.371
relative viability ([5]; first compound 8 µM): 0.35
